Results on 13 molecules are retold here after patent US8431593B2, “Heteroaryl amide derivatives” (H. Lundbeck A/S, priority 2006, dated 2013).

The test deals with T1, P2X7 receptor (Homo sapiens, UniProt Q99572).
T1 construct: host or cells: SH-SY5Y
T1 sequence (Q99572 1-595): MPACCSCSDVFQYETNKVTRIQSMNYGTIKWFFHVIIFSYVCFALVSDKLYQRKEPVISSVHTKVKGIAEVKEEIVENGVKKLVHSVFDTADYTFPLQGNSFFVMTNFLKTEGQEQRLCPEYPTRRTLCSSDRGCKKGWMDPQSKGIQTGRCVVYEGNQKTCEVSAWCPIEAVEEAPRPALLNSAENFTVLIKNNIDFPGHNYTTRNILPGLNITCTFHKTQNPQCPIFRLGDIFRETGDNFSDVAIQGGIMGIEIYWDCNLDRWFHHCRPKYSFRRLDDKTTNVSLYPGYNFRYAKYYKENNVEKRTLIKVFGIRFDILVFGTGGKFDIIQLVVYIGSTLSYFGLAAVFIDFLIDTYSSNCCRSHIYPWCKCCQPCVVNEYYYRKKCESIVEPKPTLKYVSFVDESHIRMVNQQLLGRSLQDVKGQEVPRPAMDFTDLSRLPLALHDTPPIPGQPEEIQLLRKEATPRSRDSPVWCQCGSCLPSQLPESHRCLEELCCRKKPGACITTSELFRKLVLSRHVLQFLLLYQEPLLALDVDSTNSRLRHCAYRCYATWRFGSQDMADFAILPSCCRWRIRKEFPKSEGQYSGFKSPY
The test can be described thus: P2X7 calcium mobilization assay, high throughput, antagonist activity (Example 4A). Format: cell-based. Particulars: read-out: IC50. The procedure, abridged: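 Antagonism was measured as calcium mobilization on FLIPR^TETRA after a 1 h room-temperature compound preincubation of dye-loaded cells. Baseline from no-agonist wells was subtracted from each well's maximum RFU.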
On the technique in general: A change in cytosolic calcium serves as a functional read-out for many receptors and channels.

[1] abbreviates: fluorescence response of cells exposed to 80 μM 2′(3′)-O-(4-benzoyl-benzoyl)adenosine 5′-triphosphate, Example 4A.
Setting [2] is: SH-SY5Y cells, 50% decrease in fluorescence response to 80 μM BzATP.
Where [3] appears, read: 50% decrease in the fluorescence response of cells exposed to 80 μM of 2′(3′)-O-(4-benzoyl-benzoyl)adenosine 5′-triphosphate, determined as in Example 4A.
Where [4] appears, read: 50% decrease in the fluorescence response of cells exposed to 80 μM of 2′(3′)-O-(4-benzoyl-benzoyl)adenosine 5′-triphosphate, Example 4A.

Like-named read-outs stand apart in the source and are kept apart here.

As for `O=C1CCN(C(=O)c2cn3c(NC(=O)CC45CC6CC(CC(C6)C4)C5)cccc3n2)CCN1` [Compound 380, 2-adamantan-1-yl-N-{2-[(5-oxo-1,4-diazepan-1-yl)carbonl]imidazo [1,2-a]pyridin-5-yl}acetamide], the IC50 – broadly, the concentration needed to halve the response being measured – under setting [1] was less than 2 µM. As for `COCC1CCN(C(=O)Cc2cn3c(C(=O)NCC45CC6CC(CC(C6)C4)C5)cccc3n2)CC1` [Compound 34, N-(adamantan-1-ylmethyl)-2-{2-[4-(methoxy-methyl)piperidin-1-yl]-2-oxoethyl}imidazo[1,2-a]pyridine-5-carboxamide], the IC50 under setting [2] is less than 2 µM. For `CN(CCO)C(=O)Cc1cn2c(C(=O)NCC34CC5CC(CC(C5)C3)C4)cccc2n1` [Compound 51, N-(adamantan-1-ylmethyl)-2-{2-[(2-hydroxy-ethyl)(methyl)amino]-2-oxoethyl}imidazo[1,2-a]pyridine-5-carboxamide], the IC50 under setting [2] was less than 2 µM. The same measure, in the same setting: the result for `CS(=O)(=O)C1CCN(C(=O)Cc2cn3c(C(=O)NCC45CC6CC(CC(C6)C4)C5)cccc3n2)CC1` [Compound 43] reads less than 2 µM; that for `O=C(NCC12CC3CC(CC(C3)C1)C2)c1cccc2nc(CC(=O)N3CC(O)C3)cn12` [Compound 55, N-(adamantan-1-ylmethyl)-2-[2-(3-hydroxyazetidin-1-yl)-2-oxoethyl]imidazo[1,2-a]pyridine-5-carboxamide], less than 2 µM; that for `NC(=O)[C@H]1CCC[C@H]1NC(=O)Cc1cn2c(C(=O)NCC34CC5CC(CC(C5)C3)C4)cccc2n1` [Compound 161, N-(adamantan-1-ylmethyl)-2-(2-{[(1R,2S)-2-carbamoylcyclo-pentyl]amino}-2-oxoethyl)imidazo[1,2-a]pyridine-5-carboxamide], less than 2 µM. As for `O=C(NCC1(c2ccc(Cl)cc2)CCCCC1)c1cccc2nc(Cn3nnc(CCO)n3)cn12` [Compound 919, N-{[1-(4-chlorophenyl)cyclohexyl]methyl}-2-{[5-(2-hydroxyethyl)-2H-tetrazol-2-yl]methyl}imidazo[1,2-a]pyridine-5-carboxamide], the IC50 under setting [3] is less than 2 µM. Turning to `CC1(C)[C@H]2CC[C@@H](CNC(=O)c3cccc4nc(C(=O)N5CCCC5)cn34)[C@@H]1C2` [Compound 454, N-{[(1S,2R,5S)-6,6-dimethylbicyclo[3.1.1]hept-2-yl]methyl}-2-(pyrrolidin-1-ylcarbonyl) imidazo[1,2-a]pyridine-5-carboxamide], the IC50 (50% decrease in the fluorescence response of cells exposed to 80 μM 2′(3′)-O-(4-benzoyl-benzoyl)adenosine 5′-triphosphate, Example 4A) was less than 2 µM.

Regarding `CCN(CC)C1CCN(C(=O)c2cn3c(C(=O)NCC45CC6CC(CC(C6)C4)C5)cccc3n2)CC1` [Compound 674, N-(adamantan-1-ylmethyl)-2-{[4-(diethylamino)piperidin-1-yl]carbonyl}imidazo [1,2-a]pyridine-5-carboxamide], the IC50 under setting [4] was less than 2 µM.

For `CC1(C)C2CC[C@@H](CNC(=O)c3cccc4nc(CN5CC[C@@H](N)C5)cn34)C1C2` (stereo partly drawn) [Compound 249, 2-{[(3R)-3-aminopyrrolidin-1-yl]methyl}-N-{[(2R)-6,6-dimethylbicyclo[3.1.1]hept-2-yl]methyl}imidazo[1,2-a]pyridine-5-carboxamide], the IC50 under setting [1] is less than 2 µM. For `O=C(Cc1cn2c(C(=O)NCC34CC5CC(CC(C5)C3)C4)cccc2n1)NC1CN2CCC1CC2` (stereo not shown) [Compound 684, N-(adamantan-1-ylmethyl)-2-[2-(1-azabicyclo[2.2.2]oct-3-ylamino)-2-oxoethyl]imidazo[1,2-a]pyridine-5-carboxamide], the half-inhibitory concentration (IC50) under setting [4] is less than 2 µM. For `N[C@@H]1CCN(Cc2cn3c(C(=O)NCC4(c5ccc(Cl)cc5)CCCCC4)cccc3n2)C1` [Compound 821, 2-{[(3R)-3-aminopyrrolidin-1-yl]methyl}-N-{[1-(4-chlorophenyl)cyclohexyl]methyl} imidazo[1,2-a]pyridine-5-carboxamide], the IC50 under setting [3] was less than 2 µM.

In the case of `CC(C)CC(CNC(=O)c1cccc2nc(CC(=O)NC(C)C(N)=O)cn12)c1ccccc1` (stereo not shown) [Compound 235, 2-{2-[(2-amino-1-methyl-2-oxoethyl)amino]-2-oxoethyl}-N-(4-methyl-2-phenylpentyl)imidazo [1,2-a]pyridine-5-carboxamide], under setting [1], the IC50 is less than 2 µM.
